Results: ChEMBL document CHEMBL1157273, “Sphaeric acid, a new succinic acid derivative from a Sphaeropsis sp” (J Nat Prod, 1999)
Activity calls are given as the source filed them.

Columns and labels:
Artemia salina = test: Toxicity in Artemia salina after 24 hrs; format: organism-based; details: in vivo
Escherichia coli = test: Antimicrobial activity against Escherichia coli by disk diffusion assay; format: functional, organism-based
Pseudomonas aeruginosa = test: Antimicrobial activity against Pseudomonas aeruginosa by disk diffusion assay; format: functional, organism-based
Candida albicans = test: Antimicrobial activity against Candida albicans by disk diffusion assay; format: functional, organism-based
Geotrichum candidum = test: Antimicrobial activity against Geotrichum candidum by disk diffusion assay; format: functional, organism-based
Aspergillus niger = test: Antimicrobial activity against Aspergillus niger by disk diffusion assay; format: functional, organism-based
Fusarium oxysporum = test: Antimicrobial activity against Fusarium oxysporum by disk diffusion assay; format: functional, organism-based

Measured: Activity

CCCCCCCC[C@H](C(=O)O)[C@H](C)C(=O)O [SPHAERIC ACID]
Non-toxic: Artemia salina
inactive: all other assays above
